Experimental data as given in patent publication US20250326772A1, “MRGPRX2 ANTAGONISTS, PHARMACEUTICAL COMPOSITION INCLUDING MRGPRX2 ANTAGONIST, AND METHOD OF TREATING MRGPRX2-MEDIATED DISEASE OR DISORDER” (KYORIN PHARMACEUTICAL CO., LTD., priority 2024, published 2025).

Each compound was assayed against T1, MRGPRX2 (Homo sapiens, UniProt Q96LB1) (assay: MRGPRX2 reporter cell assay (NFAT-RE luciferase, Substance P stimulation)). Details: U2OS cells stably transfected with MRGPRX2 and NFAT-RE luciferase reporter; Substance P at EC80.
T1 sequence (Q96LB1 1-330): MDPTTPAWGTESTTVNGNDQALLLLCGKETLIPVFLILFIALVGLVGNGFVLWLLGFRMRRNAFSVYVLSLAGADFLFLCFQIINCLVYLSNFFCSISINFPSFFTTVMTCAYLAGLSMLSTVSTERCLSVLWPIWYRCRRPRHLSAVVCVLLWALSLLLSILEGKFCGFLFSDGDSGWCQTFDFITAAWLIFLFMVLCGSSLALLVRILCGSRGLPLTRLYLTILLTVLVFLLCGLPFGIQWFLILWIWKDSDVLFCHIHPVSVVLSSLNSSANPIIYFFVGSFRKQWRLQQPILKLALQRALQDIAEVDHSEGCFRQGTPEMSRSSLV
Assay type: cell-based
Method: MRGPRX2 Reporter Cell Assays U2OS cells (ATCC, Manassas, VA) were stably transfected with MRGPRX2 expression clones (GeneCopoeia, Rockville, MD) and the pGL4.30 [luc2P/NFAT-RE/Hygro] reporter plasmid (Promega, Madison, WI). Clonal cells were maintained in Growth Media (McCoy's 5A, 10% FBS, 495 μg/ml hygromycin, 2 μg/ml puromycin, 100 units/ml penicillin, and 100 ug/ml streptomycin). The day before assay, cells were plated to white 384-well microplates at 3000 (MRGPRX2) cells/well in 10 ul Assay Media (McCoy's 5A, 2% charcoal dextran stripped FBS, 100 units/ml penicillin, and 100 ug/ml streptomycin) (Gibco, Thermo Fisher) and allowed to adhere overnight. The following day, serially diluted compound stocks were added directly to the cells (final DMSO concentration of 0.5%) and pre-incubated for 30 minutes at 37° C., 5% CO2. The final concentration of Substance P (Tocris, Minneapolis, MN, or PEPTIDE INSTITUTE, Osaka, Japan) corresponding to EC80 was added to stimulate the (MRGPRX2) cells. Cells were returned to the incubator for 6 hrs, after which 5 ul of ONE-GLO substrate (Promega) was added. Luminescence was read within 15 minutes (BioTek, Winooski, VT or infinite M1000Pro, Tecan Japan, Kanagawa, Japan). Percent inhibition for each test compound was calculated using the formula: […] where: • A=the luminescence count of the “test compound” well • B=the median luminescence count of the “Vehicle (0.5% DMSO)” wells • C═the median luminescence count of the “Vehicle (0.5% DMSO)+5 uM of substance P” wells The mean percent inhibition of each concentration of “test compound” was used to generate dose-response curves. IC50 values were calculated using a four-parameter logistic fit to the data using GraphPad Prism software. • +++: […]

Row | IC50 [nM] | SMILES
1 | 2.3 | CO[C@@H]1COc2c(-c3[nH]c4ncccc4c3-c3cn(C)nc3OC(F)F)c(C(F)F)nn2C1 [EX. 531]
2 | 3 | Cn1cc(-c2c(-c3c(C(F)F)nn4c3OC[C@@H](NC(=O)C3CC3)C4)[nH]c3ncccc23)c(OC(F)F)n1 [EX. 559]
3 | 2.6 | Cn1cc(-c2c(-c3c(C(F)F)nn4c3OC[C@@H](F)C4)[nH]c3ncccc23)c(C#N)n1 [EX. 449]

Same assay, conditions: U2OS cells stably transfected with MRGPRX2 and NFAT-RE luciferase reporter; Substance P at EC80; class symbols

Row | IC50 [nM] | SMILES
4 | < 10 | Cn1cc(-c2c(-c3c(C(F)F)nn4c3OC[C@@H](OC(F)F)C4)[nH]c3ncccc23)c(OC(F)F)n1 [EX. 529]
5 | < 10 | CO[C@@H]1COc2c(-c3[nH]c4ncccc4c3-c3cn(C)nc3OC(F)F)c(C(F)F)nn2C1 [EX. 531]
6 | < 10 | Cc1cc(-c2c(-c3c(C)nn4c3OC[C@@H](NC(=O)C3CC3)C4)[nH]c3ncccc23)c(C#N)s1 [EX. 505]
7 | 10 to 100 | Cn1cc(-c2c(-c3cn(C)nc3C(F)F)[nH]c3ncccc23)c(OC(F)F)n1 [EX. 291]
8 | < 10 | N#Cc1ccccc1-c1c(-c2c[nH]nc2C(F)(F)F)[nH]c2nccc(F)c12 [EX. 77]
9 | < 10 | [2H]C([2H])([2H])Oc1ccc(C#N)c(-c2c(-c3c(C)nn4c3OCCC4)[nH]c3ncccc23)c1 [EX. 239]
10 | < 10 | COc1ccccc1-c1[nH]c2ncccc2c1-c1cc(C)ccc1F [EX. 314]
11 | < 10 | COC(=O)N[C@@H]1COc2c(-c3[nH]c4ncccc4c3-c3cccnc3OC(F)F)c(C)nn2C1 [EX. 513]
12 | < 10 | Cn1cc(-c2c(-c3c(C(F)(F)F)nn4c3OCCC4)[nH]c3ncccc23)c(OC(F)F)n1 [EX. 528]
13 | < 10 | CCOC(=O)N[C@@H]1COc2c(-c3[nH]c4ncccc4c3-c3cn(C)nc3OC(F)F)c(C(F)F)nn2C1 [EX. 573]
14 | < 10 | COc1ccc(C#N)c(-c2c(-c3c(C(F)F)nn4c3OCC(NC(=O)OC(C)(C)C)C4)[nH]c3ncccc23)c1 (stereo not shown) [EX. 257]
15 | 10 to 100 | FC(F)Oc1nocc1-c1c(-c2c(C(F)F)nn3c2OCCC3)[nH]c2ncccc12 [EX. 407]
16 | < 10 | FC(F)Oc1ncccc1-c1c(-c2c(C(F)F)nn3c2OCC3)[nH]c2ncccc12 [EX. 442]
17 | < 10 | Cn1cc(-c2c(-c3c(C(F)F)nn4c3OCCC4)[nH]c3ncccc23)c(C#N)n1 [EX. 401]
18 | < 10 | [2H]c1cnc2[nH]c(-c3c(C)nn4c3OCCC4)c(-c3cc(OC([2H])([2H])[2H])ccc3C#N)c2c1 [EX. 216]
19 | < 10 | CNC(=O)O[C@@H]1COc2c(-c3[nH]c4ncccc4c3-c3cn(C)nc3C#N)c(C(F)F)nn2C1 [EX. 503]
20 | < 10 | Cn1cc(-c2c(-c3c(C(F)F)nn4c3OC[C@@H](NC(=O)C3CC3)C4)[nH]c3ncccc23)c(C#N)n1 [EX. 593, (S)—N-(3-(3-(3-cyano-1-methyl-1H-pyrazol-4-yl)-1H-pyrrolo[2,3-b]pyridin-2-yl)-2-(difluoromethyl)-6,7-dihydro-5H-pyrazolo[5,1-b] [1,3]oxazin-6-yl) cyclopropanecarboxamide]
21 | < 10 | CS(=O)(=O)N[C@@H]1COc2c(-c3[nH]c4ncccc4c3-c3cccnc3C#N)c(C(F)F)nn2C1 [EX. 522]
22 | < 10 | Cn1cc(-c2c(-c3c(C(F)F)nn4c3OC[C@@H](NC(=O)C3CC3)C4)[nH]c3ncccc23)c(OC(F)F)n1 [EX. 559]
23 | < 10 | Cn1cc(-c2c(-c3c(CF)nn4c3OCCC4)[nH]c3ncccc23)c(OC(F)F)n1 [EX. 423]
24 | < 10 | COc1ccc(C#N)c(-c2c(-c3c(C(F)F)nn4c3OCC(N)C4)[nH]c3ncccc23)c1 (stereo not shown) [EX. 357]
25 | < 10 | COc1ccc(C#N)c(-c2c(-c3c(C)nn4c3OCCC4)[nH]c3ncccc23)c1 [EX. 227]
26 | 10 to 100 | CCn1cc(-c2c(-c3c(C(F)F)nn4c3OCCC4)[nH]c3ncccc23)c(OC(F)F)n1 [EX. 400, 3-[3-[3-(difluoromethoxy)-1-ethyl-pyrazol-4-yl]-1H-pyrrolo[2,3-b]pyridin-2-yl]-2-(difluoromethyl)-6,7-dihydro-5H-pyrazolo[5,1-b] [1,3]oxazine]
27 | < 10 | CCn1cc(-c2[nH]c3ncccc3c2-c2ccccc2C#N)c(C(F)(F)F)n1 [EX. 147]
28 | < 10 | N#Cc1ccccc1-c1c(-c2c(C(F)F)nn3c2OCC(O)C3)[nH]c2ncccc12 (stereo not shown) [EX. 203]
29 | < 10 | CCc1nn2c(c1-c1[nH]c3ncccc3c1-c1cn(C)nc1OC(F)F)OC[C@@H](NS(C)(=O)=O)C2 [EX. 545]
30 | < 10 | Cn1cc(-c2[nH]c3ncccc3c2-c2ccccc2C#N)c(C(F)(F)F)n1 [EX. 128]

Row | IC50 [nM] | SMILES
31 | < 10 | C[C@@H](O)CC(=O)N[C@@H]1COc2c(-c3[nH]c4ncccc4c3-c3cn(C)nc3OC(F)F)c(C(F)F)nn2C1 [EX. 555]
32 | < 10 | FC(F)Oc1ncccc1-c1c(-c2c(C(F)F)nn3c2OCCCC3)[nH]c2ncccc12 [EX. 441]
33 | < 10 | N#Cc1ncccc1-c1c(-c2c(C(F)F)nn3c2OC[C@@H](O)C3)[nH]c2ncccc12 [EX. 470]
34 | < 10 | C[C@@H](O)C(=O)N[C@@H]1COc2c(-c3[nH]c4ncccc4c3-c3cn(C)nc3OC(F)F)c(C(F)F)nn2C1 [EX. 560]
35 | 10 to 100 | FC(F)c1nn2c(c1-c1[nH]c3ncccc3c1-c1ccncc1C(F)(F)F)OCCC2 [EX. 412]
36 | < 10 | O[C@@H]1COc2c(-c3[nH]c4ncccc4c3-c3cccnc3OC(F)F)c(C3CC3)nn2C1 [EX. 455]
37 | < 10 | O[C@@H]1COc2c(-c3[nH]c4ncccc4c3-c3ccncc3OC(F)F)c(C(F)F)nn2C1 [EX. 463]
38 | < 10 | Cn1cc(-c2c(-c3c(C(F)F)nn4c3OC[C@@H](NC(=O)[C@H]3C[C@@](C)(O)C3)C4)[nH]c3ncccc23)c(OC(F)F)n1 [EX. 563]
39 | < 10 | CC(=O)NCCO[C@@H]1COc2c(-c3[nH]c4ncccc4c3-c3cn(C)nc3OC(F)F)c(C(F)F)nn2C1 [EX. 537]
40 | < 10 | Cc1ccc(C#N)c(-c2c(-c3cnn4cccnc34)[nH]c3ncccc23)c1 [EX. 100]
41 | < 10 | Cn1cc(-c2c(-c3c(C(F)F)nn4c3OC[C@@H](F)C4)[nH]c3ncccc23)c(C#N)n1 [EX. 449]
42 | < 10 | Cn1cc(-c2c(-c3c(C(F)F)nn4c3OC[C@@H](OCCNS(C)(=O)=O)C4)[nH]c3ncccc23)c(OC(F)F)n1 [EX. 536]
43 | < 10 | COC(=O)N[C@@H]1COc2c(-c3[nH]c4ncccc4c3-c3csnc3OC(F)F)c(C(F)F)nn2C1 [EX. 518]
44 | < 10 | Cn1cc(-c2c(-c3c(C(F)F)nn4c3OC[C@@H](NC(=O)C(C)(C)O)C4)[nH]c3ncccc23)c(OC(F)F)n1 [EX. 587]
45 | < 10 | Cc1ccc(C#N)c(-c2c(-c3c[nH]nc3C(F)F)[nH]c3ncccc23)c1 [EX. 101]
46 | < 10 | FC(F)Oc1ncccc1-c1c(-c2c(C(F)F)nn3c2OC[C@@H](F)C3)[nH]c2ncccc12 [EX. 437]
47 | < 10 | COc1ncccc1-c1c(-c2c(C(F)F)nn3c2OC[C@@H](O)C3)[nH]c2ncccc12 [EX. 462]
48 | < 10 | CN[C@@H]1COc2c(-c3[nH]c4ncccc4c3-c3cn(C)nc3OC(F)F)c(C(F)F)nn2C1 [EX. 582, (S)-3-(3-(3-(difluoromethoxy)-1-methyl-1H-pyrazol-4-yl)-1H-pyrrolo[2,3-b]pyridin-2-yl)-2-(difluoromethyl)-N-methyl-6,7-dihydro-5H-pyrazolo[5,1-b] [1,3]oxazin-6-amine]
49 | < 10 | COc1ncccc1-c1c(-c2c(C(F)F)nn3c2OCCC3)[nH]c2ncccc12 [EX. 429, 2-(difluoromethyl)-3-(3-(2-methoxypyridin-3-yl)-1H-pyrrolo[2,3-b]pyridin-2-yl)-6,7-dihydro-5H-pyrazolo[5,1-b] [1,3]oxazine]
50 | < 10 | N#Cc1ncccc1-c1c(-c2c(C(F)F)nn3c2OC[C@@H](F)C3)[nH]c2ncccc12 [EX. 424]
51 | < 10 | Cc1nn2c(c1-c1[nH]c3ncccc3c1-c1cccnc1OC(F)F)OC[C@@H](OCCO)C2 [EX. 498]
52 | < 10 | CCc1ccc(C#N)c(-c2c(-c3cn(C)nc3C(F)F)[nH]c3ncccc23)c1 [EX. 116]
53 | < 10 | COc1ccc(C#N)c(-c2c(-c3c(C(F)F)nn4c3OCC(NC(C)=O)C4)[nH]c3ncccc23)c1 (stereo not shown) [EX. 358]
54 | < 10 | COc1ccc(C#N)c(-c2c(-c3c(C)nn4cc(O)cnc34)[nH]c3ncccc23)c1 [EX. 181]
55 | < 10 | COc1ccc(C#N)c(-c2c(-c3c[nH]nc3C(F)F)[nH]c3ncccc23)c1 [EX. 96]
56 | < 10 | O[C@@H]1COc2c(-c3[nH]c4ncccc4c3-c3ccc(F)cc3OC(F)F)c(C(F)F)nn2C1 [EX. 467]
57 | < 10 | Cc1cc(-c2c(-c3c(C(F)F)nn4c3OCC4)[nH]c3ncccc23)c(C#N)s1 [EX. 433]

Row | SMILES | IC50 [nM]
58 | COc1ccc(F)c(-c2c(-c3cc(F)ccc3OC)[nH]c3ncccc23)c1 [EX. 345] | < 10
